Read-outs that look alike come from different tables or passages of the source.
Experiments:
6C3HED lymphosarcoma = assay: animal or person; type: in vivo; conditions: for inhibition in vivo at 600 mg/kg: read-out: % inhibition of tumor growth, oral, 600 mg/kg, DX 8
Experimental: (§1) The compounds were tested in C3H mice bearing a 6C3HED lymphosarcoma, also known as the Gardner lymphosarcoma (GLS), and in a variety of human tumor xenografts in CD1 nu/nu mice, including CX-1, LX-1, HXGC3, and VRC5. The 6C3HED lymphosarcoma was obtained from the Division of Cancer Treatment, National […] Institute, Tumor Bank, maintained at E. G. and G. Mason Research (Worcester, Mass.). The CX-1 human colon carcinoma and the LX-1 human lung carcinoma xenografts were obtained from the National Cancer Institute. The HXGC3 and VRC5 human colon xenografts were obtained from Dr. P. J. Houghton, St. Jude Children's Hospital in Memphis (see Br. J. Cancer, 37, 213 (1978)). First passage tumor was stored in liquid nitrogen using standard techniques. The transplanted tumor was reestablished from the Tumor Bank every six months or as needed. The tumor was maintained by serial passage twice weekly in C3H mice.
(§2) In the procedure the tumor was removed from passage animals and minced into 1- to 3-mm square fragments using sterile techniques. Tumor pieces were checked for sterility using both Antibiotic Medium 1 and Brain Heart Infusion (Difco, Detroit, Mich.). Recipient mice were shaved and tumor pieces were implanted subcutaneously in the auxiliary region by trocar. Drug therapy on the appropriate schedule was initiated on the day after tumor implant for 6C3HED and after a seven (7) day delay for xenografts (or other delay as noted in Table 2). The compound being tested was mixed with 2.5% Emulphor EL620 from GAF Corporation (1:40 dilution in saline). Food and water were provided ad libitium. The drug was administered orally in 0.5 ml of 2.5% Emulphor (unless otherwise indicated). The tumor was measured the day after treatment ended with two dimensional measurements (width and length) of the tumor taken using automated digital calipers interfaced to a microcomputer. Approximate weight for the tumor was calculated using the following formula [Worzalla, J. F., et al., Invest. New Drugs, 8, 241 (1990], (tumor weight in mg)=(width in mm)^2 ×(length in mm)/2.
(§3) At least one control group of an equal number of mice was treated with the same volume of 2.5% Emulphor only. The percent inhibition was determined by subtracting the ratio of the mean tumor size of the test group relative to the control group from one and multiplying the result times 100.
(§4) The results of several experiments in mice bearing a 6C3HED lymphosarcoma (or other tumor where indicated) when the indicated compounds were administered are provided in Table 2. In Table 2, column 1 gives the Example number of the compound used, column 2 lists the dose level in mg/kg, column 3 provides the percent inhibition of tumor growth, column 4 gives the number of mice which died relative to the total number of animals in the group, column 5 gives the method of administration of the compound, and column 6 gives the dosage schedule. The protocol used with other tumors was the same as with the 6C3HED lymphosarcoma.

LX1 = type: in vivo; conditions: oral, BIDX 10
Experimental: as §1, §2, §3, §4

[1] = Mus musculus, 6C3HED, po, read-out: % inhibition of tumor growth, oral, 150 mg/kg, DX 8
[2] = Mus musculus, 6C3HED, po, read-out: % inhibition of tumor growth, oral, 300 mg/kg, DX 8
[3] = Mus musculus, 6C3HED, ip, read-out: % inhibition of tumor growth, IP, 150 mg/kg, DX 8
[4] = Mus musculus, 6C3HED, po, read-out: % inhibition of tumor growth, oral, 150 mg/kg, BIDX 8
[5] = Mus musculus, 6C3HED, po, read-out: % inhibition of tumor growth, oral, 300 mg/kg, BIDX 8
[6] = Mus musculus, 6C3HED, ip, read-out: % inhibition of tumor growth, IP, 300 mg/kg, DX 8

`CN=S(=O)(NC(=O)Nc1ccc(Cl)cc1)c1ccc(C)cc1` (stereo not drawn) [Example 3, N-[[(4-Chlorophenyl)amino]carbonyl]-N',4-dimethylbenzenesulfonimidamide] showed an inhibition in vivo at 12.5 mg/kg (6C3HED lymphosarcoma; Mus musculus, 6C3HED, po, read-out: % inhibition of tumor growth, oral, 12.5 mg/kg, BIDX 8) of 58%, an inhibition in vivo at 25 mg/kg (6C3HED lymphosarcoma; Mus musculus, 6C3HED, po, read-out: % inhibition of tumor growth, oral, 25 mg/kg, BIDX 8) of 82% and an inhibition in vivo at 50 mg/kg (6C3HED lymphosarcoma; Mus musculus, 6C3HED, po, read-out: % inhibition of tumor growth, oral, 50 mg/kg, BIDX 8) of 91%. For the same molecule, the inhibition in vivo at 75 mg/kg (6C3HED lymphosarcoma; Mus musculus, 6C3HED, po, read-out: % inhibition of tumor growth, oral, 75 mg/kg, DX 8) was 81%, the inhibition in vivo at 100 mg/kg (6C3HED lymphosarcoma; Mus musculus, 6C3HED, po, read-out: % inhibition of tumor growth, oral, 100 mg/kg, BIDX 8) was 99% and the inhibition in vivo at 150 mg/kg (6C3HED lymphosarcoma; [1]) was 93%. It also gave an inhibition in vivo at 200 mg/kg (6C3HED lymphosarcoma; Mus musculus, 6C3HED, po, read-out: % inhibition of tumor growth, oral, 200 mg/kg, BIDX 8) of 100%, an inhibition in vivo at 300 mg/kg (6C3HED lymphosarcoma; [2]) of 99% and an inhibition in vivo at 600 mg/kg (6C3HED lymphosarcoma; Mus musculus, 6C3HED, po) of 100%. For the same molecule, the “Tox/Tot (mice which died / total)” value (6C3HED lymphosarcoma; oral, 12.5 mg/kg, BIDX 8) was 0/10, the “Tox/Tot (mice which died / total)” value (6C3HED lymphosarcoma; oral, 25 mg/kg, BIDX 8) was 0/10 and the “Tox/Tot (mice which died / total)” value (6C3HED lymphosarcoma; oral, 50 mg/kg, BIDX 8) was 0/10. For the same molecule, the “Tox/Tot (mice which died / total)” value (6C3HED lymphosarcoma; oral, 75 mg/kg, DX 8) was 0/10, the “Tox/Tot (mice which died / total)” value (6C3HED lymphosarcoma; oral, 100 mg/kg, BIDX 8) was 0/10 and the “% inhibition of tumor growth” value (6C3HED lymphosarcoma; oral, 150 mg/kg, DX 8) was 96%. For the same molecule, the “Tox/Tot (mice which died / total)” value (6C3HED lymphosarcoma; oral, 150 mg/kg, DX 8) was 1/10, the “Tox/Tot (mice which died / total)” value (6C3HED lymphosarcoma; oral, 200 mg/kg, BIDX 8) was 0/10 and the “Tox/Tot (mice which died / total)” value (6C3HED lymphosarcoma; oral, 300 mg/kg, DX 8) was 0/10. For the same molecule, the “Tox/Tot (mice which died / total)” value (6C3HED lymphosarcoma; oral, 600 mg/kg, DX 8) was 4/10, the “% inhibition of tumor growth” value (6C3HED lymphosarcoma; oral, 1200 mg/kg, DX 8) was “TOX” and the “Tox/Tot (mice which died / total)” value (6C3HED lymphosarcoma; oral, 1200 mg/kg, DX 8) was 10/10. For the same molecule, the “% inhibition of tumor growth” value (LX1; 150 mg/kg) was “TOX”, the “Tox/Tot (mice which died / total)” value (LX1; 150 mg/kg) was 8/8 and the “% inhibition of tumor growth” value (LX1; 300 mg/kg) was “TOX”. For the same molecule, the “Tox/Tot (mice which died / total)” value (LX1; 300 mg/kg) was 8/8.

In the case of `Cc1cc(S(N)(=O)=NC(=O)Nc2ccc(Cl)cc2)cc(C)c1Cl` (stereo not drawn) [Example 61], the “Tox/Tot (mice which died / total)” value (6C3HED lymphosarcoma; IP, 150 mg/kg, DX 8) is reported as 2/10, the “% inhibition of tumor growth” value (6C3HED lymphosarcoma; IP, 300 mg/kg, DX 8) is reported as “TOX” and the “Tox/Tot (mice which died / total)” value (6C3HED lymphosarcoma; IP, 300 mg/kg, DX 8) is reported as 10/10. For the same molecule, the inhibition in vivo at 150 mg/kg (6C3HED lymphosarcoma; [3]) was 72%, the inhibition in vivo at 150 mg/kg (6C3HED lymphosarcoma; [4]) was 0% and the inhibition in vivo at 300 mg/kg (6C3HED lymphosarcoma; [5]) was 0%. For the same molecule, the “Tox/Tot (mice which died / total)” value (6C3HED lymphosarcoma; oral, 150 mg/kg, BIDX 8) was 0/10 and the “Tox/Tot (mice which died / total)” value (6C3HED lymphosarcoma; oral, 300 mg/kg, BIDX 8) was 0/10.

With `CN=S(=O)(NC(=O)Nc1ccc(Cl)cc1)c1ccc2c(c1)CCC2` (stereo not drawn) [Example 55, N-[[(4-chlorophenyl)amino]carbonyl]-N'-methyl-5-indanylsulfonimidamide] the inhibition in vivo at 75 mg/kg (6C3HED lymphosarcoma; Mus musculus, 6C3HED, po, read-out: % inhibition of tumor growth, oral, 75 mg/kg, BIDX 8) was 70%, the inhibition in vivo at 150 mg/kg (6C3HED lymphosarcoma; [4]) was 75% and the “Tox/Tot (mice which died / total)” value (6C3HED lymphosarcoma; oral, 75 mg/kg, BIDX 8) was 0/10. For the same molecule, the “Tox/Tot (mice which died / total)” value (6C3HED lymphosarcoma; oral, 150 mg/kg, BIDX 8) was 1/10.

With `N=S(=O)(NC(=O)Nc1ccc(Cl)cc1)c1ccc2c(c1)CCC2` (stereo not drawn) [Example 54, N-[[(4-chlorophenyl)amino]carbonyl]-5-indanylsulfonimidamide] the “Tox/Tot (mice which died / total)” value (6C3HED lymphosarcoma; IP, 12.5 mg/kg, BIDX 8) was 0/10, the “Tox/Tot (mice which died / total)” value (6C3HED lymphosarcoma; IP, 25 mg/kg, BIDX 8) was 0/10 and the “Tox/Tot (mice which died / total)” value (6C3HED lymphosarcoma; IP, 50 mg/kg, BIDX 8) was 0/10. For the same molecule, the “Tox/Tot (mice which died / total)” value (6C3HED lymphosarcoma; IP, 100 mg/kg, BIDX 8) was 0/10, the “Tox/Tot (mice which died / total)” value (6C3HED lymphosarcoma; IP, 150 mg/kg, DX 8) was 1/10 and the “Tox/Tot (mice which died / total)” value (6C3HED lymphosarcoma; IP, 300 mg/kg, DX 8) was 3/10. For the same molecule, the “Tox/Tot (mice which died / total)” value (6C3HED lymphosarcoma; IV, 12.5 mg/kg, DX 8) was 0/10, the “Tox/Tot (mice which died / total)” value (6C3HED lymphosarcoma; IV, 25 mg/kg, DX 8) was 0/10 and the inhibition in vivo at 12.5 mg/kg (6C3HED lymphosarcoma; Mus musculus, 6C3HED, ip, read-out: % inhibition of tumor growth, IP, 12.5 mg/kg, BIDX 8) was 6%. It also gave an inhibition in vivo at 25 mg/kg (6C3HED lymphosarcoma; Mus musculus, 6C3HED, ip, read-out: % inhibition of tumor growth, IP, 25 mg/kg, BIDX 8) of 30%, an inhibition in vivo at 50 mg/kg (6C3HED lymphosarcoma; Mus musculus, 6C3HED, ip, read-out: % inhibition of tumor growth, IP, 50 mg/kg, BIDX 8) of 44% and an inhibition in vivo at 100 mg/kg (6C3HED lymphosarcoma; Mus musculus, 6C3HED, ip, read-out: % inhibition of tumor growth, IP, 100 mg/kg, BIDX 8) of 70%. It also gave an inhibition in vivo at 150 mg/kg (6C3HED lymphosarcoma; [3]) of 86%, an inhibition in vivo at 300 mg/kg (6C3HED lymphosarcoma; [6]) of 94% and an inhibition in vivo at 12.5 mg/kg (6C3HED lymphosarcoma; Mus musculus, 6C3HED, iv, read-out: % inhibition of tumor growth, IV, 12.5 mg/kg, DX 8) of 3%. It also gave an inhibition in vivo at 25 mg/kg (6C3HED lymphosarcoma; Mus musculus, 6C3HED, iv, read-out: % inhibition of tumor growth, IV, 25 mg/kg, DX 8) of 19%, an inhibition in vivo at 150 mg/kg (6C3HED lymphosarcoma; [4]) of 22% and an inhibition in vivo at 300 mg/kg (6C3HED lymphosarcoma; [5]) of 33%. The inhibition in vivo at 600 mg/kg (6C3HED lymphosarcoma; Mus musculus, 6C3HED, po) was 34%, the “Tox/Tot (mice which died / total)” value (6C3HED lymphosarcoma; oral, 150 mg/kg, BIDX 8) was 0/10 and the “Tox/Tot (mice which died / total)” value (6C3HED lymphosarcoma; oral, 150 mg/kg, DX 8) was 0/10. The “Tox/Tot (mice which died / total)” value (6C3HED lymphosarcoma; oral, 300 mg/kg, BIDX 8) was 0/10, the “Tox/Tot (mice which died / total)” value (6C3HED lymphosarcoma; oral, 300 mg/kg, DX 8) was 0/10 and the “Tox/Tot (mice which died / total)” value (6C3HED lymphosarcoma; oral, 600 mg/kg, DX 8) was 0/10.

`Cc1ccc(NC(=O)N=S(N)(=O)c2ccc(C)cc2)cc1` (stereo not drawn) [Example 24] was tested, and the “Tox/Tot (mice which died / total)” value (6C3HED lymphosarcoma; IP, 150 mg/kg, DX 8) was 0/10, the “Tox/Tot (mice which died / total)” value (6C3HED lymphosarcoma; IP, 300 mg/kg, DX 8) was 0/10 and the inhibition in vivo at 150 mg/kg (6C3HED lymphosarcoma; [3]) was 31%. The inhibition in vivo at 300 mg/kg (6C3HED lymphosarcoma; [6]) was 52%, the inhibition in vivo at 150 mg/kg (6C3HED lymphosarcoma; [1]) was 10% and the inhibition in vivo at 300 mg/kg (6C3HED lymphosarcoma; [2]) was 40%. For the same molecule, the “Tox/Tot (mice which died / total)” value (6C3HED lymphosarcoma; oral, 150 mg/kg, DX 8) was 0/10 and the “Tox/Tot (mice which died / total)” value (6C3HED lymphosarcoma; oral, 300 mg/kg, DX 8) was 0/10.

From patent US5258406A, “Sulfonimidamides” (priority 1992, dated 1993)
